# Earlier results, collected in patent US8940311B2, “In situ controlled release drug delivery system” (priority 2004, dated 2015).
# Legend:
# [1] = test system: liver microsomal enzymes
# [2] = target: plasma cholinesterase (Homo sapiens, UniProt P06276); details: hydrolysis by plasma cholinesterase
# plasma cholinesterase, sequence (P06276 29-602): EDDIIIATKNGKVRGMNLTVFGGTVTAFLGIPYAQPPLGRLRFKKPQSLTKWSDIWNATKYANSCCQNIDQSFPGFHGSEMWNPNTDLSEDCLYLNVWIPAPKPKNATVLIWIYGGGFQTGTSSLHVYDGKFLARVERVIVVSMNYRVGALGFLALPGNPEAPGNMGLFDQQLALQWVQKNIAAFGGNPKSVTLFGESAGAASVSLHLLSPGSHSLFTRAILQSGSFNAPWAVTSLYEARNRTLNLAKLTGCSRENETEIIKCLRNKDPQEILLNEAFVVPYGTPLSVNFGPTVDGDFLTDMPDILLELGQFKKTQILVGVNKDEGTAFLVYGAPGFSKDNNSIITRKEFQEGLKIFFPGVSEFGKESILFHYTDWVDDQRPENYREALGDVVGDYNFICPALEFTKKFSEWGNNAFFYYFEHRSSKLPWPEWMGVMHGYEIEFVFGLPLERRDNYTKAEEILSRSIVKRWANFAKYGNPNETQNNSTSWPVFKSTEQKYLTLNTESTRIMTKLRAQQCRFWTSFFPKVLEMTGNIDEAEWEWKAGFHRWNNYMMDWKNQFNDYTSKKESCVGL
Structure (SMILES),order of rate of amide hydrolysis [1],half-life [2]
CCCCN1CCCCC1C(=O)Nc1c(C)cccc1C (stereo not shown) [bupivacaine],slowest,–
CCN(CC)CCOC(=O)c1ccc(N)cc1Cl [chloroprocaine],–,less than one
CCN(CC)CCOC(=O)c1ccc(N)cc1 [procaine],–,less than one
CCCN(CC)C(CC)C(=O)Nc1c(C)cccc1C (stereo not shown) [etidocaine],fastest,–
